Entries after “also recorded” stand apart in the source; their conditions may differ. Where two headings read alike, the source gives them in different places.

1 molecule from EP2759295A1, “Foam cell specific Liver X Receptor (LXR) alpha agonist, SIRT1 inhibitors as well as p300 inhibitors as pharmaceutically active agents” (Max-Planck-Gesellschaft zur Förderung der Wissenschaften …, priority 2013, dated 2014) can be followed below.

Holding throughout (format): cell-based, human
One data set relates to macrophages. Put plainly: triglyceride content in macrophages (Triglyceride Assay Kit). The conditions noted are these: 10 µM, 48 h. On the procedure: (§1) THP-1 monocytes were plated out into 24-well plates (Nunc) at a density of 2 x 10^5 cells/well. After differentiation and treatment cells were lysed with 100 µL lysis buffer (PBS, 0.25 M NaCl, 1% Triton X-100). Total and free cholesterol were determined using the colorimetric enzymatic Amplex Red Cholesterol Assay Kit (Invitrogen). Triglycerides were quantified by Triglyceride Assay Kit (BioVision). For normalisation protein content was determined with Pierce 660 nm Protein Assay Reagent (Thermo Scientific).

Data set [1] concerns foam cells. Put plainly: cholesterol content in foam cells (Amplex Red Cholesterol Assay). The settings on record: 10 µM, 48 h. The protocol: as §1
Data set [2] has as its system foam cells. Put plainly: Western blot of LXRα and APOE content in foam cells. The settings on record: densitometry. The protocol: Whole cell extracts were harvested from three biological replicates and denaturized for SDS-PAGE (NuPAGE Novex 4-12% Bis-Tris Gels). Proteins were blotted on nitrocellulose Hybond ECL membrane and incubated with strictly validated published antibodies against LXRα (Abcam, ab 41902), APOE (Abcam ab1906), and as housekeeping protein control β-Actin (Santa Cruz Biotechnology, sc-47778, C4). Secondary antibodies were HRP labeled anti-mouse and anti-rabbit (Santa Cruz Biotechnology). After detection with Western Lightning Plus-ECL solution membranes were stripped with Restore Plus Western Blot Stripping Buffer. Densitometry was performed in ImageQuant TL (GE Healthcare). This tool measures quantitatively the optical density and provides more accurate data than simple eye-observations. The calculation of log (protein of interest/ β-Actin) corrects data for loading imbalances.
(In general: In western blotting, separated proteins are transferred to a membrane and probed.)

Data set [3] relates to foam cells. The data set can be described thus: qPCR gene expression of LXRα target genes in foam cells. The conditions noted are these: 10 µM. On the procedure:
(§2) For generating macrophages differentiation was induced by 10^-8 M Phorbol 12-myristate 13-acetate (PMA) (Sigma-Aldrich) for 48 h. Ligand treatment of macrophages was performed for further 24 h. To induce foam cell formation macrophages were treated for additional 48 h with 100 µg/mL modified human oxidized low density lipoprotein (oxLDL) obtained from Source BioScience (RP-048). Ligand treatment was performed simultaneously with foam cell formation. Cholesterol loading and treatment was controlled with Oil Red O staining (Alfa Aeser). To investigate ligand induced effects on cell proliferation of THP-1 macrophages CellTiter-Glo Luminescent Cell Viability Assay (Promega) was utilized.
(§3) Total RNA isolation and purification was performed by using the RNeasy Mini Kit (QIAGEN) and RNase-Free DNase Set (QIAGEN). cDNA was generated by reverse transcription using the High Capacity cDNA Reverse Transcription Kit (Applied Biosystems). Gene expression was quantified using the SYBR Green PCR Master Mix (Applied Biosystems) and ABI 7900HT Fast Real Time PCR System (Applied Biosystems). In each reaction 0.8 ng/µL cDNA and 0.2 µM primers were used. Gene expression was calculated with the ΔΔCt-method. β-Actin was used for normalisation.
A general note: In qPCR the cycle at which signal appears reflects the starting amount.

The subject of data set [4] is foam cells. The data set can be described thus: microarray genome-wide gene expression and GSEA in foam cells. The conditions noted are these: 10 µM. On the procedure: Microarray analyses were performed according to instructions of Illumina's TotalPrep RNA Amplification Kit followed by hybridisation on HumanHT-12 v3 or HumanHT-12 v4 Expression BeadChips (illumina). Data analysis was performed with GenomeStudio […].1 (illumina). Differential expression analysis was performed on background-subtracted data with cubic spline normalization and Benjamini-Hochberg FDR correction. […] Gene expression data were submitted in MIAME-compliant form to the NCBI Gene Expression Omnibus database (GSE39079). Bead array data were validated by quantitative real-time PCR. The Gene Distance Matrix was conducted in Euclidean space using the MeV 4.3 software tool [[…]. et al. Biotechniques (2003), 34, 374-378]. Gene Set Enrichment Analysis (GSEA) was performed as described elsewhere [Subramanian A. et al. Proc. Natl. Acad. Sci. […] Enrichment of pathways was tested using the Reactome (v3.0) and the KEGG (v3.0) database from the Molecular Signature Database (MSigDB). Heatmaps were carried out with […]. et al. BMC Bioinformatics (2012), 11, 121]. For presentation of treatment effects in the heatmap, the pathway normalized enrichment score (NES) was adjusted with the appropriate FDR as follows: adjustedNES = (1-FDR) x NES.

Data set [5] deals with foam cells. The data set can be described thus: siRNA-mediated LXRα/β knockdown in foam cells with qPCR. The settings on record: 10 µM ligand for 24 h. On the procedure:
Target specificity of ligand-dependent gene expression effects was investigated in siRNA-mediated LXRα and β-knockdown foam cells with subsequent qPCR or microarray analysis. Therefore, 2 x 10^5 THP-1 cells/well were differentiated in 24-well plate and induced to foam cells prior to knockdown as described above. Foam cells were transfected using TransIT-TKO transfection reagent (Mirus Bio), for combined knockdown with 15 nM LXRα Silencer Validated siRNA (Ambion, ID 5458) and 15 nM LXRβ Silencer Select Validated siRNA (Ambion, ID s14684) and with 30 nM LXRα or LXRβ for individual knockdowns, respectively. As control we used 30 nM Silencer Select Negative Control #1 (Ambion). Transfection was carried out for 48 h and followed by treatment with 10 µM ligand or vehicle control for 24 h.
as §3

Data set [6] concerns THP-1 macrophages. Put plainly: CellTiter-Glo viability assay in THP-1 macrophages. The protocol: as §2
A general note: ATP-based viability assays read luminescence as a measure of living cells.

In data set [7] the test system is THP-1 macrophages. Put plainly: qPCR gene expression of LXRα target genes in THP-1 macrophages. On the procedure:
as §2, §3

For the molecule `C(=C\c1ccc(OCC2CO2)cc1)/c1ccccc1` (centres unmarked) [compound 1, 2-[[4-[(E)-styryl]phenoxy]-methyl]oxirane], the triglyceride level entry in the data set with macrophages is “stayed unchanged”. In the data set on foam cells [1], the “total and esterified cholesterol content” value was “significant reduction of total and esterified cholesterol content”. Also, in the data set with foam cells [2], the “protein expression levels of LXRα target genes” value is reported as “increased protein expression levels of LXRα target genes”. Further, the “expression of LXRα target genes (LXRα, SREBF1, ABCA1, APOE)” value was “strongly in foam cells; also recorded: potent target gene expression similar to T09; also recorded: up-regulation of SREBF1 mRNA” in the data set with foam cells [3] and “only marginally activated LXR-target genes in macrophages” with THP-1 macrophages [7] (10 µM). Further, the “Lipid metabolism processes (gene set enrichment)” value with foam cells [4] is reported as “comparably up-regulated”. In addition, the “triacylglyceride biosynthesis (transcriptional regulation)” value in the data set on foam cells [4] is listed as “not regulated”. The “gene expression of LXRα and ABCA1 after LXRα/β knockdown” value in the data set with foam cells [5] was “higher dependency on the LXRα subtype”. Besides, the “no cytotoxic effects / no reduction of cellular viability up to” value in the data set on THP-1 macrophages [6] is “up to 50 µM”; with THP-1 macrophages [6] (listed as Compound 1) it was “up to 25 µM”. For the same molecule, in the data set on THP-1 macrophages [7] (in the presence of 1 µM T09), the ABCA1 expression result is listed as “additive effects”.
